According to publication PMC12196347, “Evaluating Triazole-Substituted Pyrrolopyrimidines as CSF1R Inhibitors” (Molecules, 2025):
Where two headings read alike, the source gives them in different places.

What was measured:
Type in all cases: biochemical
Details in all cases: ATP equal to KM
[1] = target: T1, AURKB (Aurora B) (Homo sapiens, UniProt Q96GD4); assay: Kinase panel profiling: AURKB
T1 construct: purchased Thermo Fisher Scientific (Invitrogen) SelectScreen (Z'-LYTE)

[2] = target: T2, MINK1 (Homo sapiens, UniProt Q8N4C8); assay: Kinase panel profiling: MINK1
T2 construct: purchased Thermo Fisher Scientific (Invitrogen) SelectScreen (Z'-LYTE)

[3] = target: T3, MKNK1 (MNK1) (Homo sapiens, UniProt Q9BUB5); assay: Kinase panel profiling: MKNK1
T3 construct: purchased Thermo Fisher Scientific (Invitrogen) SelectScreen (Z'-LYTE)

[4] = target: T4, EPHA2 (Homo sapiens, UniProt P29317); assay: Kinase panel profiling: EPHA2
T4 construct: purchased Thermo Fisher Scientific (Invitrogen) SelectScreen (Z'-LYTE)

[5] = 1000 nM test concentration, read-out: Average inhibition (%)
[6] = 1000 nM, first data point, read-out: Inhibition (%)
[7] = 1000 nM, second data point, read-out: Inhibition (%)

T1 sequence (Q96GD4 whole entry): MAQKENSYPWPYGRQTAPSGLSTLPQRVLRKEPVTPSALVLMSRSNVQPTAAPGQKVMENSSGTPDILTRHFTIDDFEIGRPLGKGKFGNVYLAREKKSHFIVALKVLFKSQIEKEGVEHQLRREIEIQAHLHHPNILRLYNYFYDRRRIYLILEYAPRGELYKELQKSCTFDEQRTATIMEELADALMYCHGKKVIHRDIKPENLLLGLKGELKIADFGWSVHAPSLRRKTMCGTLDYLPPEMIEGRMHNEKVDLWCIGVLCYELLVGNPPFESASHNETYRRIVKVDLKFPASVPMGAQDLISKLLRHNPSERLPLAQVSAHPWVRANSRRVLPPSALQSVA
T3 sequence (Q9BUB5 whole entry): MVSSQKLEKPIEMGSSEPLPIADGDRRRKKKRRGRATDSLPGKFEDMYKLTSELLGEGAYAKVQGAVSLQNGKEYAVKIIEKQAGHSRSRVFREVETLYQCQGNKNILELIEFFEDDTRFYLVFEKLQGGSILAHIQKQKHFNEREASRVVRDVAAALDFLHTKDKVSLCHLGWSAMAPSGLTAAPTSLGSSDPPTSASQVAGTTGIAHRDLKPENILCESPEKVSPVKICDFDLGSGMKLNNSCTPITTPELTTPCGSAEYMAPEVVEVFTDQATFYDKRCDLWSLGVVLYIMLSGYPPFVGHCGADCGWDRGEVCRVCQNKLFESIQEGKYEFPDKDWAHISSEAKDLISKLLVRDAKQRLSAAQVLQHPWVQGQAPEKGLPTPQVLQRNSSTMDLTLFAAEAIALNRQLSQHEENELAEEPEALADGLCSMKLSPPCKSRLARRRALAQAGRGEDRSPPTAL
T2 sequence (Q8N4C8 whole entry): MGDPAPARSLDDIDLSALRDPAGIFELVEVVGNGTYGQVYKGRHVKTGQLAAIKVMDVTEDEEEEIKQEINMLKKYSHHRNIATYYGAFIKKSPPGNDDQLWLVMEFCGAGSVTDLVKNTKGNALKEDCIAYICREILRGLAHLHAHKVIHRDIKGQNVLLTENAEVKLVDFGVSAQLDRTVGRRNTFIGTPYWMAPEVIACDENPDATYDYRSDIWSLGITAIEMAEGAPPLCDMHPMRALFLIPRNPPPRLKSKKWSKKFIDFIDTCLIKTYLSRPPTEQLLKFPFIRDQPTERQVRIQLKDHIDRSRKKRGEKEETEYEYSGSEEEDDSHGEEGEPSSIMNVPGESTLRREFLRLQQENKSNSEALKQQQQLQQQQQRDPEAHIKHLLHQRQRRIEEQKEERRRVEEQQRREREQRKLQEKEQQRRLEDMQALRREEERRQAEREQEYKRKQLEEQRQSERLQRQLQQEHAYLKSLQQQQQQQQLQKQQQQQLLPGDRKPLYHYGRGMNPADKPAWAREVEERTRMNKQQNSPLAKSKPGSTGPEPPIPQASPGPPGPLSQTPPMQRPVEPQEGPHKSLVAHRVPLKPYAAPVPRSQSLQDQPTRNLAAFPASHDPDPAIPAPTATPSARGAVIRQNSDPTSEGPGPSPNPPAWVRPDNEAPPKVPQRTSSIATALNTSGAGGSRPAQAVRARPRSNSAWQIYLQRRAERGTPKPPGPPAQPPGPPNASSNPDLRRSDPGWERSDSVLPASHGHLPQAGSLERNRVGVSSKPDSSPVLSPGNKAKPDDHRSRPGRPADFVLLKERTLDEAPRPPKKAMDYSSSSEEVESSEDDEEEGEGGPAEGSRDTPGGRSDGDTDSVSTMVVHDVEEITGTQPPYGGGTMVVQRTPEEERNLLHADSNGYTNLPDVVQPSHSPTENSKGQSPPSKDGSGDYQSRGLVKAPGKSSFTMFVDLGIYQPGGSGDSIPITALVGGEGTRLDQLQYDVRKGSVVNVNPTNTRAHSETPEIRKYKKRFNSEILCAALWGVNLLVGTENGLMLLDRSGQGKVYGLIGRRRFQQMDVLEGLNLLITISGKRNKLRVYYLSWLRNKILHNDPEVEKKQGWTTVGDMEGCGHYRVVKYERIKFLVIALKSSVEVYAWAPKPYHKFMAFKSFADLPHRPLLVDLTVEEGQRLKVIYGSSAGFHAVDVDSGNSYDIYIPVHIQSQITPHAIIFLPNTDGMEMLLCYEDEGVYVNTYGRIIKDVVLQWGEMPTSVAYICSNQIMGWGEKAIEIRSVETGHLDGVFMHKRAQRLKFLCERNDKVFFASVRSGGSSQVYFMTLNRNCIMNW
T4 sequence (P29317 24-976): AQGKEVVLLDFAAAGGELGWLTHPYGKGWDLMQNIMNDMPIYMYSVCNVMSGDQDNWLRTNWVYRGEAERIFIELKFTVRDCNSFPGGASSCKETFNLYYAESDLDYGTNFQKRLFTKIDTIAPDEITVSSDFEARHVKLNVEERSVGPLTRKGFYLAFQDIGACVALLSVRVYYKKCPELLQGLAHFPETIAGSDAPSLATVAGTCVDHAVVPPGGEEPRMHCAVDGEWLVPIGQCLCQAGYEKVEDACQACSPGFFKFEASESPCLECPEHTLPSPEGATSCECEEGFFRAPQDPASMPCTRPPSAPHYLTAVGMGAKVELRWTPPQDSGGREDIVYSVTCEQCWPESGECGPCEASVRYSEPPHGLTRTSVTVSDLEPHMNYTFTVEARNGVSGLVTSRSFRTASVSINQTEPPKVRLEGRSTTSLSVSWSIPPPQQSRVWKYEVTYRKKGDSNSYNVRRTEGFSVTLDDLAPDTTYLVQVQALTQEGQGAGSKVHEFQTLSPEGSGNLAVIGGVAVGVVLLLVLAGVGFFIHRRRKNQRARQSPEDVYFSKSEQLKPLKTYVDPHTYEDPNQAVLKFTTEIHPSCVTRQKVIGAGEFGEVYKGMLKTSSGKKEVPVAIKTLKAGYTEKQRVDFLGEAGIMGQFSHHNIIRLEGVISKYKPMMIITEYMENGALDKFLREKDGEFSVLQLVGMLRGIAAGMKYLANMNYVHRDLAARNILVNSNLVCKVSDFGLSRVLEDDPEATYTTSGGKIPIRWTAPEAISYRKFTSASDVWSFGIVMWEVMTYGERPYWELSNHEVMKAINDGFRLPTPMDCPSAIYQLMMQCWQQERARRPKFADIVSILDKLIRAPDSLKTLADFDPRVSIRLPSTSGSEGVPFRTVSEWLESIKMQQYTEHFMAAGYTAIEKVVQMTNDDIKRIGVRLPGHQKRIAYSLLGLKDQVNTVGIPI

What does the source list for `Cc1cccc(CN(C)c2ncnc3[nH]c(-c4cn(Cc5cccnc5)nn4)cc23)c1` [Compound 27a, N-Methyl-N-(3-methylbenzyl)-6-(1-(pyridin-3-ylmethyl)-1H-1,2,3-triazol-4-yl)-7H-pyrrolo[2,3-d]pyrimidin-4-amine]?
inhibition at 1 µM [1, 5]: 47%; inhibition at 1 µM [1, 6]: 47%; inhibition at 1 µM [1, 7]: 46%; inhibition at 1 µM [2, 5]: 76%; inhibition at 1 µM [2, 6]: 75%; inhibition at 1 µM [2, 7]: 77%; inhibition at 1 µM [3, 5]: 2%; inhibition at 1 µM [3, 6]: 3%; inhibition at 1 µM [3, 7]: 1%; inhibition at 1 µM [4, 5]: 89%; inhibition at 1 µM [4, 6]: 88%; inhibition at 1 µM [4, 7]: 91%
